The test system of one data set is Erythrocyte. Nature of the data set: Hemolytic activity in human RBC incubated measured upto 128 ug/ml. Type of data set: toxicity, cell-based. The following applies: dose < 128 µg/ml.
Data set [1] has as its system Staphylococcus aureus. Nature of the data set: Antibacterial activity against Staphylococcus aureus ATCC 25923 assessed growth inhibition by micro broth dilution method. The data set is classed as functional. Background: In broth dilution the organism is exposed to a series of concentrations in liquid medium.
A short description of data set [2]: Cytotoxicity against human FHC cells assessed as cell viability at 8 ug/ml. Type of data set: toxicity, cell-based. The following applies: at 8 µg/mL, read-out: Activity.
Data set [3] deals with Pseudomonas aeruginosa. Briefly: Antibacterial activity against Pseudomonas aeruginosa ATCC 27853 assessed growth inhibition by micro broth dilution method. The data set is classed as functional.
The test system of data set [4] is Staphylococcus aureus. Nature of the data set: Antibacterial activity against methicillin-resistant Staphylococcus aureus assessed growth inhibition by micro broth dilution method. The data set is classed as functional.
Data set [5] deals with Staphylococcus aureus. Briefly: Antibacterial activity against Staphylococcus aureus ATCC 29213 assessed growth inhibition by micro broth dilution method. Type of data set: functional.
A further data set concerns Acinetobacter baumannii. Briefly: Antibacterial activity against Acinetobacter baumannii assessed growth inhibition by micro broth dilution method. The data set is classed as functional.
For data set [6], the system named is Staphylococcus aureus. Briefly: Antibacterial activity against Staphylococcus aureus assessed growth inhibition by micro broth dilution method. The data set is classed as functional.
Another data set deals with Enterococcus faecalis. Briefly: Antibacterial activity against Enterococcus faecalis assessed growth inhibition by micro broth dilution method. The data set is classed as functional.
In data set [7] the test system is Escherichia coli. Briefly: Antibacterial activity against Escherichia coli ATCC 25922 assessed growth inhibition by micro broth dilution method. Type of data set: functional.
The nature of data set [8]: Cytotoxicity against human NOK cells assessed as cell viability at 8 ug/ml. Type of data set: toxicity, cell-based. The following applies: nok-si, dose 8 µg/ml.
For data set [9], the system named is Escherichia coli. Nature of the data set: Antibacterial activity against Escherichia coli assessed growth inhibition by micro broth dilution method. The data set is classed as functional.
Data set [10] deals with Pseudomonas aeruginosa. Nature of the data set: Antibacterial activity against Pseudomonas aeruginosa assessed growth inhibition by micro broth dilution method. Type of data set: functional.
Another data set concerns Klebsiella pneumoniae. Nature of the data set: Antibacterial activity against Klebsiella pneumonia assessed growth inhibition by micro broth dilution method. The data set is classed as functional.

In brackets after ≈: the same amount, converted by molar mass.

In the case of `CCOC(=O)c1cn(Cc2ccc(Cl)cc2Cl)c2cc([C-](C#N)C(=O)OCC)c(F)cc2c1=O.[Na+]` (stereo not given), the Activity entry (in the data set with Erythrocyte; in data set [8]) was “Non-Toxic” in each case. The MIC came to 0.25 µg/mL with Staphylococcus aureus [1]; 0.5 µg/mL with Pseudomonas aeruginosa [3]; 16 µg/mL in the data set on Staphylococcus aureus [4]; 0.25 µg/mL with Staphylococcus aureus [5]; 2 µg/mL against Acinetobacter baumannii; 32 µg/mL in the data set with Staphylococcus aureus [6]. In addition, the MIC was 1 µg/mL in the data set with Enterococcus faecalis; 0.25 µg/mL in the data set on Escherichia coli [7]; 0.5 µg/mL in the data set with Escherichia coli [9]; 4 µg/mL with Pseudomonas aeruginosa [10]; 0.25 µg/mL in the data set on Klebsiella pneumoniae. The viability at 8 ug/ml in data set [2] was found to be 70%.
As for `CCOC(=O)c1cn2c3c(c([C-](C#N)C(=O)OCC)c(F)cc3c1=O)OC[C@@H]2C.[Na+]` (stereo not given in full), the MIC with Staphylococcus aureus [1] amounted to 4 µg/mL; against Pseudomonas aeruginosa [3], 64 µg/mL; in the data set with Staphylococcus aureus [4] it was 128 µg/mL; in the data set with Staphylococcus aureus [5], 256 µg/mL; against Acinetobacter baumannii, 128 µg/mL; against Staphylococcus aureus [6], 256 µg/mL. Further, the MIC against Enterococcus faecalis was found to be 128 µg/mL; with Escherichia coli [7], 64 µg/mL; against Escherichia coli [9], 64 µg/mL; against Pseudomonas aeruginosa [10] it was 256 µg/mL; with Klebsiella pneumoniae it was 256 µg/mL.
In the case of `CCOC(=O)c1cn(CC2CC2)c2cc(F)c(F)cc2c1=O`, the MIC stood at 128 µg/mL (≈ 417 µM) in the data set on Staphylococcus aureus [1]; 256 µg/mL (≈ 833 µM) against Pseudomonas aeruginosa [3]; 256 µg/mL (≈ 833 µM) against Staphylococcus aureus [4]; 128 µg/mL (≈ 417 µM) in the data set on Staphylococcus aureus [5]; 256 µg/mL (≈ 833 µM) against Acinetobacter baumannii; 128 µg/mL (≈ 417 µM) against Staphylococcus aureus [6]. Also, the MIC against Enterococcus faecalis was 128 µg/mL (≈ 417 µM); against Escherichia coli [7], 64 µg/mL (≈ 208 µM); in the data set with Escherichia coli [9] it was 16 µg/mL (≈ 52.1 µM); against Pseudomonas aeruginosa [10] it was 32 µg/mL (≈ 104 µM); in the data set on Klebsiella pneumoniae, 128 µg/mL (≈ 417 µM).
As for `CCOC(=O)c1cn(CC2CCCC2)c2cc([C-](C#N)C(=O)OCC)c(F)cc2c1=O.[Na+]` (stereo not given), the MIC against Staphylococcus aureus [1] amounted to 8 µg/mL; against Pseudomonas aeruginosa [3] it was 8 µg/mL; against Staphylococcus aureus [4], 16 µg/mL; in the data set with Staphylococcus aureus [5], 4 µg/mL; against Acinetobacter baumannii, 4 µg/mL; with Staphylococcus aureus [6], 16 µg/mL. For the same compound, the MIC against Enterococcus faecalis came to 2 µg/mL; against Escherichia coli [7], 2 µg/mL; in the data set with Escherichia coli [9], 128 µg/mL; in the data set on Pseudomonas aeruginosa [10], 8 µg/mL; against Klebsiella pneumoniae, 8 µg/mL.
For `CCOC(=O)c1cn(Cc2cccc(Cl)c2)c2cc([C-](C#N)C(=O)OCC)c(F)cc2c1=O.[Na+]` (stereo not given), the MIC worked out at 1 µg/mL in the data set with Staphylococcus aureus [1]; 2 µg/mL with Pseudomonas aeruginosa [3]; 64 µg/mL with Staphylococcus aureus [4]; 2 µg/mL in the data set with Staphylococcus aureus [5]; 64 µg/mL against Acinetobacter baumannii; 128 µg/mL against Staphylococcus aureus [6]. In addition, the MIC in the data set with Enterococcus faecalis amounted to 1 µg/mL; against Escherichia coli [7] it was 2 µg/mL; against Escherichia coli [9], 0.5 µg/mL; in the data set with Pseudomonas aeruginosa [10] it was 16 µg/mL; in the data set on Klebsiella pneumoniae, 4 µg/mL.
Turning to `CCOC(=O)c1cn2c3c(c(F)c(F)cc3c1=O)OC[C@@H]2C`, the MIC turned out to be 32 µg/mL (≈ 103 µM) with Staphylococcus aureus [1]; 256 µg/mL (≈ 828 µM) with Pseudomonas aeruginosa [3]; 64 µg/mL (≈ 207 µM) against Staphylococcus aureus [4]; 64 µg/mL (≈ 207 µM) in the data set with Staphylococcus aureus [5]; 32 µg/mL (≈ 103 µM) against Acinetobacter baumannii; 128 µg/mL (≈ 414 µM) in the data set with Staphylococcus aureus [6]. Moreover, the MIC against Enterococcus faecalis is 128 µg/mL (≈ 414 µM); with Escherichia coli [7] it was 128 µg/mL (≈ 414 µM); with Escherichia coli [9], 16 µg/mL (≈ 51.7 µM); with Pseudomonas aeruginosa [10] it was 128 µg/mL (≈ 414 µM); against Klebsiella pneumoniae it was 32 µg/mL (≈ 103 µM).
Turning to `CCOC(=O)c1cn(CC2CCC2)c2cc([C-](C#N)C(=O)OCC)c(F)cc2c1=O.[Na+]` (stereo not given), the MIC in the data set with Staphylococcus aureus [1] is 4 µg/mL; in the data set with Pseudomonas aeruginosa [3], 8 µg/mL; with Staphylococcus aureus [4] it was 16 µg/mL; against Staphylococcus aureus [5] it was 8 µg/mL; against Acinetobacter baumannii, 4 µg/mL; against Staphylococcus aureus [6], 8 µg/mL. For the same compound, the MIC against Enterococcus faecalis turned out to be 2 µg/mL; in the data set on Escherichia coli [7] it was 2 µg/mL; against Escherichia coli [9], 64 µg/mL; against Pseudomonas aeruginosa [10] it was 16 µg/mL; against Klebsiella pneumoniae, 8 µg/mL.

In general, MIC refers to the lowest concentration found to suppress growth.

Source of the values: ChEMBL document CHEMBL5528028, “Discovery of benzopyridone cyanoacetates as new type of potential broad-spectrum antibacterial candidates” (Eur J Med Chem, 2024).
